The IC50 is the point on the concentration scale where inhibition reaches its midpoint. By solubility is commonly meant how much of the substance goes into solution per volume.

Results on 11 molecules are retold here after patent US7692011B2, “8-hydroxy and 8-mercapto quinazolinones” (Prana Biotechnology Limited, priority 2002, dated 2010).

For data set [1], the target named is T1, Aβ 1-42 (Homo sapiens, UniProt P05067).
T1 construct: The reaction solutions contained Aβ 1-42
Description: Assay 1 Fluorometric H2O2 assay: inhibition of hydrogen peroxide generation by Aβ in the presence of copper. The format is biochemical. The settings on record: Aβ 1-42 with Cu-Gly, DCF fluorescence. As to the method: Assay 1. Fluorometric H2O2 Assay
A fluorometric assay was used to test the ability of a test compound to inhibit hydrogen peroxide generation by Aβ in the presence of copper based on dichlorofluoroscein diacetate (DCF; Molecular Probes, Eugene Oreg.). The DCF solution (5 mM) in 100% dimethyl sulphoxide (previously purged with argon for 1 hr at 20° C.) was deacetylated in the presence of 0.025M NaOH for 30 min and neutralised at pH 7.4 to a final concentration of 1 mM. Horseradish peroxidase ([…]) stock solution was prepared to 1 μM at pH 7.4. The reactions were carried out in PBS, pH 7.4 in a 96 well plate (total volume=250 μl/well). The reaction solutions contained Aβ 1-42 at concentrations in the range of 50 nM to 1 μM, copper-glycine chelate (Cu-Gly), was prepared by adding CuCl2 to glycine in the ratio of 1:6 and added to the Aβ in the proportion 2Cu-Gly: 1Aβ), reducing agents including dopamine (5 μM) or ascorbic acid, deacetylated DCF 100 μM, and HRP, 0.1 μM. 1-10 μM EDTA or another chelator may also be present as a control for free copper, but was not required for the assay to function. The reaction mixture was incubated at 37 C for 60 min. Catalase (4000 units/ml) and H2O2 (1-2.5 μM) standards in PBS pH 7.4 may be included as positive controls. Fluorescence was recorded using a plate reader with excitation and emission filters at […] respectively. H2O2 concentration may be established by comparing fluorescence with the H2O2 standards. Inhibition of Aβ H2O2 production was assayed by including a given concentration of test compound(s) in the test wells.

For data set [2], the system named is Neuronal cortical cells treated with Aβ1-42. The experiment in a line: Assay 3(c) Aβ neurotoxicity and Aβ neuroprotection (MTS). Particulars: 20 uM Aβ1-42, 4 days. The format is cell-based, mouse. How it is done:
Primary Cortical Neuronal Cultures
Cortical cultures were prepared as previously described (White et al., 1998). Embryonic day 14 BL6Jx129sv mouse cortices were removed, dissected free of meninges and dissociated in 0.025% (wt/vol) trypsin. Dissociated cells were plated in 48 well culture plates at a density of 2×10^6 cells/mL in MEM with 25% (vol/vol) FCS and 5% (vol/vol) HS and incubated at 37° C., 2 hrs. Media was then replaced with Neurobasal media (Invitrogen Life Technologies) and B27 supplements (Invitrogen Life Technologies). Cultures were maintained at 37° C. in 5% CO2. Prior to experimentation, the culture medium was replaced with Neurobasal media and B27 minus antioxidants (Invitrogen Life Technologies).
(c) Assay for Aβ Neurotoxicity and Aβ Neuroprotection
Neuronal cortical cells were cultured for five days as per Assay 2. On day six the neurobasal (NB) media (Invitrogen Life Technologies) and B27 supplement (Invitrogen Life Technologies) were replaced with NB media and B27 supplement (no antioxidants). On day six, test compounds were individually added to the neuronal cell cultures:
The test compounds were dissolved in 100% DMSO to a concentration of 2.5 mM (10 mM if excess compound was weighed out per vial—then diluted to 2.5 mM). 2.5 mM stock solution was serially diluted 1 in 10 to give working solutions of 250 uM, 25 uM, 2.5 uM.
Aβ was initially dissolved in 20 mM NaOH to a concentration of 1 mM and sonicated for 5 minutes. The peptide was then diluted in H2O and 10×PBS to a final concentration of 200 uM Aβ in 1×PBS. The peptide was again sonicated for 5 minutes and then spun at 14000 rpm for 5 min and transferred to a fresh tube.
The test compounds were dissolved in 100% DMSO to a concentration of 2.5 mM (10 mM if excess compound was weighed out per vial—then diluted to 2.5 mM). 2.5 mM stock solution was serially diluted 1 in 10 [in NB media and B27 (no antioxidants)] to give working solutions of 250 uM, 25 uM, 2.5 uM. Test compounds were not added directly to cells, instead they were added to a 48 well ‘Drug Plate’ as comprised below:
Preparation of “Drug Plate”:
• Well 1: 515 ul NB+B27(no antioxidant)*+24 ul 25 uM test compound+60 ul Aβ diluent** • Well 2: 515 ul NB+B27(no antioxidant)+24 ul 250 uM test compound+60 ul Aβ diluent • Well 3: 515 ul NB+B27(no antioxidant)+24 ul test compound diluent***+60 ul Aβ1-42 • Well 4: 515 ul NB+B27(no antioxidant)+24 ul 2.5 uM test compound+60 ul Aβ1-42 • Well 5: 515 ul NB+B27(no antioxidant)+24 ul 25 uM test compound+60 ul Aβ1-42 • Well 6: 515 ul NB+B27(no antioxidant)+24 ul 250 uM test compound+60 ul […] • Well 7: 515 ul NB+B27(no antioxidant)+24 ul test compound diluent+60 ul Aβ1-42 diluent • Well 8: 600 ul NB+B27(no antioxidant) • N.B. 60 ul Aβ1-42 equals 20 ul Aβ1-42 per well equals 20 uM Aβ1-42
The Drug Plate was incubated at 37° C. for 15 mins. 200 ul of each well was added in triplicate to the corresponding cell plate. The cell plate was incubated at 37 C, for 4 days. • * NB media+B27 (no antioxidants), • ** Aβ diluent 2 mM NaOH, 1×PBS • *** PBT diluent 10% DMSO in NB+B27(no antioxidant) Completion of the Assay:
On the 4th day after treating the cells the assay is completed by adding MTS to the cells.

A short description of data set [3]: Assay 12 Turbidimetric solubility measurements. The format is physicochemical. Particulars: kinetic from dmso stock, nephelometry. How it is done: Turbidimetric Solubility Measurements
The solubility estimate was measured at both pH 2.0 and pH 6.5. This is within the pH range that can be anticipated along the proximal gastrointestinal tract in humans.
The compounds were dissolved in DMSO to appropriate concentrations and then spiked into either 0.01M HCl (approx. pH=2.0) or pH 6.5 isotonic phosphate buffer, the final DMSO concentration being 1%. Samples were then analysed via Nephelometry to determine a solubility range. [as per D. Bevan and R. S. Lloyd, Anal. Chem. 2000, 72, 1781-1787].

Data set [4] concerns moderately severe AD patients. Description: Phase II clinical trial in Alzheimer's disease: cognition (ADAS-cog). The format is in vivo, human. The settings on record: more-severely affected groups. The text has this:
The performance of the less-severely affected group (ADAS-cog<25) deteriorated negligibly over this interval, so cognitive changes could not be discriminated in this stratum.
Study population: The study took place at the AD clinical trials unit, Mental Health Research Institute of Victoria and at the Royal Melbourne Hospital. Criteria for inclusion in the study were: informed consent; a diagnosis of probable AD by NINCDS-ADRDA criteria (McKhann et al., 1984); AD Assessment Scale-cognitive (ADAS-cog) (Rosen et al., 1984) score of 18-45; Mini Mental State Examination (MMSE) (Folstein et al., 1975) score of 10-24; on donepezil 5 mg or 10 mg for at least 6 months; relative or carer willing and able to support the trial; able to complete trial examinations; primary sensorial functions intact.
(§1) Study design: The study was a double blind, placebo-controlled, parallel group randomized design. […] The duration of the study was 36 weeks.
Outcome measures: The primary clinical efficacy variable was a change from baseline score on the ADAS-cog conducted at baseline and at weeks 4, 12, 24 and 36. […]
Data preparation and statistical analysis: Data monitoring and management were undertaken by independent contractors (Kendle International and Health Research Solutions, Melbourne). […] Differences between groups on categorical measures were analysed using exact statistical methods in order to maximise power. […]

Data set [5] in a line: Phase II clinical trial: plasma metal levels (ICP-MS). Format: in vivo, human. Particulars: AD patients, oral.
Description: as §1
Blood samples were collected by antecubital venepuncture except on weeks 12, 24 and 36 when they were collected by an indwelling catheter. […] Zn data from these intervals were therefore omitted from analysis.
Outcome measures: The primary clinical efficacy variable was a change from baseline score on the ADAS-cog conducted at baseline and at weeks 4, 12, 24 and 36. This measure was chosen to allow comparability of treatment effects with current therapeutics such as donepezil, where efficacy trials also used ADAS-cog as their primary outcome measure (Rogers et al., 1998). Although numerous neuropsychological tests could be considered as secondary measures, it was necessary to avoid fatiguing the subjects at review. Therefore the only other cognitive test was the Mini-Mental State Exam (MMSE). The CIBIC+ (clinician interview based impression of change incorporating caregiver information), a subjective observational index was also conducted. Plasma Aβ, and plasma zinc and copper were all taken every four weeks.
Metal levels: Metals were measured by inductively coupled plasma mass spectrometry as previously described (Cherny et al., 2001).

A short description of data set [6]: Phase II clinical trial: therapeutic drug monitoring, blood levels by HPLC. Format: in vivo. Particulars: human, oral, read-out: Steady state pre-dose blood level.
Description: as §1

The mark [7] stands for this setting: aqueous buffer, pH 6.5 isotonic phosphate buffer, 1% DMSO, read-out: Assay 12 Solubility at pH 6.5.
[8] abbreviates: simulated gastric fluid, 0.01 M HCl, pH 2.0, 1% DMSO, read-out: Assay 12 Solubility in 0.01 M HCl, pH 2.0.

Converted amounts (≈) assume the structure as drawn. Counter-ions that a name gives are not always drawn. Like-named read-outs stand apart in the source and are kept apart here.

T1 sequence (P05067 672-713 limits assumed): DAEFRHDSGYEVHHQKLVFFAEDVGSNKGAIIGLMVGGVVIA

Consider `CNCc1ccc2cnc(C(=O)NCc3ccc(F)cc3)c(O)c2n1` [PBT-1070], for which, in data set [1], the IC50 was found to be 1140 nM.

Regarding `Cc1cnc2c(O)c(Cl)cc(Cl)c2n1` [PBT-1065, 6,8-Dichloro-2-methylquinoxalin-5-ol], in data set [2], the “Assay 3(c) Neuroprotection (% inhibition of Abeta toxicity)” value stood at 7%.

Regarding `O=c1ccnc2c(O)cccn12` [PBT-1048, 9-hydroxypyrido[1,2-a]pyrimidin-4-one], in data set [2], the “Assay 3(c) Neuroprotection (% inhibition of Abeta toxicity)” value is listed as 22%. For the same molecule, the half-inhibitory concentration (IC50) in data set [1] was determined as 350 nM.

For the molecule `O=c1[nH]cnc2c(O)cccc12` [PBT-1049, 8-hydroxy-3H-quinazolin-4-one], the “Assay 3(c) Neuroprotection (% inhibition of Abeta toxicity)” value in data set [2] turned out to be 11%. Moreover, the concentration for half-maximal inhibition (IC50) in data set [1] is 1600 nM.

Regarding `COC(=O)c1nc(Cl)c2cccnc2c1O` [PBT-1045, 5-chloro-8-hydroxy-[1,6]naphthyridine-7-carboxylic acid methyl ester], the “Assay 3(c) Neuroprotection (% inhibition of Abeta toxicity)” value in data set [2] is listed as 12%. Further, in data set [1], the IC50 was determined as 900 nM.

As for `O=c1[nH]cnc2c(O)c(Cl)cc(Cl)c12` [PBT-1067, 5,7-Dichloro-8-hydroxy-3H-quinazolin-4-one], the IC50 in data set [1] was determined as 950 nM. Also, the figures for the solubility in data set [3] (setting [7]) and in data set [3] (setting [8]) were 25 to 50 µg/mL (≈ 108 to 216 µM) and 12.5 to 25 µg/mL (≈ 54.1 to 108 µM), respectively.

Turning to `Cc1cnc2c(Cl)cc(Cl)c(O)c2n1` [PBT 1064, 6,8-Dichloro-3-methylquinoxalin-5-ol], the “Assay 3(c) Neuroprotection (% inhibition of Abeta toxicity)” value in data set [2] came to 29%.

For the molecule `O=c1c(-c2ccc(Cl)cc2)cnc2c(O)cccn12` [PBT-1069, 3-(4-chlorophenyl)-9-hydroxypyrido[1,2-a]pyrimidin-4-one], in data set [1], the IC50 amounted to 600 nM.

For the molecule `CN(C)Cc1cnc2c(Cl)cc(Cl)c(O)c2n1` [PBT-1066, 6,8-Dichloro-3-(dimethylaminomethyl)quinoxalin-5-ol hydrochloride], the solubility in data set [3] (setting [7]) and in data set [3] (setting [8]) was above 100 µg/mL each time.

For the molecule `Oc1c(I)cc(Cl)c2cccnc12` [PBT-1, iodochlorohydroxyquinoline], the “Difference in mean change from baseline ADAS-cog score over placebo” value in data set [4] (week 24) is recorded as 7.37 (95% CI: 1.51-13.24). Further, the “Difference in mean change from baseline ADAS-cog score over placebo” value in data set [4] (week 36) is listed as 6.36 (95% CI: −0.50-13.23). In data set [5], the “Effect on plasma Cu” value is “no effect” and the “Elevation of total plasma Zn” value is “≈ 30%”. In data set [6] (250 mg/day, total daily dosage 250 mg), the concentration at 12 weeks worked out at 4030 ± 2100 ng/mL. Moreover, the concentration at 24 weeks in data set [6] (500 mg/day, total daily dosage 500 mg) was 6740 ± 3700 ng/mL. Further, the concentration at 36 weeks in data set [6] (750 mg/day, total daily dosage 750 mg) turned out to be 7600 ± 2150 ng/mL.

In the case of `O=c1c2c(Cl)cc(Cl)c(O)c2ncn1-c1ccc(F)cc1` [PBT-1055, 5,7-Dichloro-3-(4-fluorophenyl)-8-hydroxy-3H-quinazolin-4-one], the “Assay 3(c) Neuroprotection (% inhibition of Abeta toxicity)” value in data set [2] was 29%. Besides, the IC50 in data set [1] was found to be 750 nM. The solubility in data set [3] (setting [7]) and in data set [3] (setting [8]) was 3 to 6.3 µg/mL (≈ 9.23 to 19.4 µM) in each case.
